Data taken from patent US9617256B2 (priority 2007, dated 2017).
Values after ≈ are worked out from the molar mass of the structure shown. Read-outs that look alike come from different tables or passages of the source.

Tests used:
AECO001 (ATCC25922) = assay: MIC broth microdilution, AECO001; format: cell-based, E. coli; conditions: for MIC: Escherichia coli; for Ratio of MICs on AECO001 [Cpd (A = —CHCH3NH2)/Cpd (A = —C(CH3)2NH2)]: MIC of paired compound with A = —CHCH3NH2 divided by MIC of compound with A = —C(CH3)2NH2, n=2 data, pairs identical except for the A moiety
Method: (§1) Bacterial isolates were cultivated from −70° C. frozen stocks by overnight passages at 35° C. in ambient air on Mueller-Hinton agar (Beckton Dickinson, Franklin Lakes, N.J.). Clinical isolates tested were obtained from various geographically diverse hospitals in the US and abroad (Focus Diagnostics, Herndon, Va. and JMI, North Liberty, Iowa). Quality control strains were from the American Type Culture Collection (ATCC; Rockville, Md.). Additional primary panel strains were generated using standard molecular biology techniques.
(§2) Minimum Inhibitory Concentrations (MICs) were determined by the broth microdilution method in accordance with the Clinical and Laboratory Standards Institute (CLSI) guidelines. In brief, organism suspensions were adjusted to a 0.5 McFarland standard to yield a final inoculum between 3×10^5 and 7×10^5 colony-forming units (CFU)/mL. Drug dilutions and inocula were made in sterile, cation adjusted Mueller-Hinton Broth (Beckton Dickinson). An inoculum volume of 100 μL was added to wells containing 100 μL of broth with 2-fold serial dilutions of drug. All inoculated microdilution trays were incubated in ambient air at 35° C. for 18-24 hours. […] Performance of the assay was monitored by the use of laboratory quality-control strains and levofloxacin, a compound with a defined MIC spectrum, in accordance with CLSI guidelines.
(§3) *AECO001 is ATCC25922, AECO063 is ATCC25922 bearing an acrAB mutation, APAE001 is ATCC27853, APAE006 is a strain of P. aeruginosa in which all efflux pumps are inactivated, APAE006+PMBN indicates MICs with the indicated strain in the presence of 8 micrograms per milliliter of polymyxin B nonapeptide, AABA1060 is a clinical isolate of Acinetobacter baumannii, ASAU001 is a laboratory strain of S. aureus (ATCC29213).

[1] = test system: AECO063 (ATCC25922 bearing an acrAB mutation); assay: microbe, parasite or virus in culture; format: cell-based, E. coli; conditions: Escherichia coli, ATCC25922, read-out: MIC AECO063
Method: as §1, §2, §3

APAE001 (ATCC27853) = assay: MIC broth microdilution, APAE001; format: cell-based, P. aeruginosa; conditions: Pseudomonas aeruginosa, ATCC27853, read-out: MIC APAE001, APAE001 (ATCC27853)
Method: as §1, §2, §3

[2] = test system: APAE006 (strain of P. aeruginosa in which all efflux pumps are inactivated); assay: microbe, parasite or virus in culture; format: cell-based; conditions: Pseudomonas aeruginosa, read-out: MIC APAE006, APAE006, all efflux pumps inactivated
Method: as §1, §2, §3

[3] = test system: APAE006 in the presence of 8 micrograms per milliliter of polymyxin B nonapeptide; format: cell-based, P. aeruginosa; conditions: APAE006 with 8 micrograms per milliliter polymyxin B nonapeptide
Method: as §1, §2, §3

[4] = test system: AABA1060 (clinical isolate of Acinetobacter baumannii); assay: MIC broth microdilution, AABA1060; format: cell-based; conditions: Acinetobacter baumannii, read-out: MIC AABA1060
Method: as §1, §2, §3

[5] = test system: ASAU001 (laboratory strain of S. aureus, ATCC29213); assay: MIC broth microdilution, ASAU001; format: cell-based; conditions: Staphylococcus aureus, ATCC29213, read-out: MIC ASAU001
Method: as §1, §2, §3

[6] = ATCC25922, read-out: MIC AECO001
[7] = ATCC25922, read-out: MIC AECO001 HSA AGP

| SMILES | MIC (AECO001 (ATCC25922); [6]) [µg/mL] | MIC (AECO001 (ATCC25922); [7]) [µg/mL] | MIC [1] [µg/mL] | MIC (APAE001 (ATCC27853)) [µg/mL] | MIC [2] [µg/mL] | MIC APAE006 + PMBN [3] | MIC [4] [µg/mL] | MIC [5] [µg/mL] | Ratio of MICs on AECO001 [Cpd (A = —CHCH3NH2)/Cpd (A = —C(CH3)2NH2)] (AECO001 (ATCC25922)) |
| --- | --- | --- | --- | --- | --- | --- | --- | --- | --- |
| C[C@@H](N)[C@H](NC(=O)c1ccc(C#CC#Cc2cnn(C)c2)cc1)C(=O)NO [Example 89-1, N-((2S,3R)-3-amino-1-(hydroxyamino)-1-oxobutan-2-yl)-4-((1-methyl-1H-pyrazol-4-yl)buta-1,3-diynyl)benzamide] | < 2 | 2 to 16 (≈ 5.47 to 43.8 µM) | < 2 | < 2 | < 2 | A (MIC's of 2.0 μg/mL or less = A) | 2 to 16 (≈ 5.47 to 43.8 µM) | 16 to 64 (≈ 43.8 to 175 µM) |  |
| Cn1cc(C#CC#Cc2ccc(C(=O)N[C@H](C(=O)NO)C(C)(C)N)cc2)cn1 [Example 89-2] | < 2 | 2 to 16 (≈ 5.27 to 42.2 µM) | < 2 | < 2 | < 2 | A (MIC's of 2.0 μg/mL or less = A) | < 2 | 16 to 64 (≈ 42.2 to 169 µM) | 1.6 |
| Cn1cc(C#CC#Cc2ccc(C(=O)N[C@H](C(=O)NO)C(C)(C)O)cc2)cn1 [Example 89-3] | < 2 | < 2 | < 2 | < 2 | < 2 | A (MIC's of 2.0 μg/mL or less = A) | 2 to 16 (≈ 5.26 to 42.1 µM) | 16 to 64 (≈ 42.1 to 168 µM) |  |
| C[C@@H](N)[C@H](NC(=O)c1ccc(C#CC#Cc2cncnc2)cc1)C(=O)NO [Example 89-4] | 16 to 64 (≈ 44 to 176 µM) | 16 to 64 (≈ 44 to 176 µM) | 2 to 16 (≈ 5.5 to 44 µM) | 2 to 16 (≈ 5.5 to 44 µM) | < 2 | A (MIC's of 2.0 μg/mL or less = A) | 16 to 64 (≈ 44 to 176 µM) | 16 to 64 (≈ 44 to 176 µM) |  |
| Cn1cnc(C#CC#Cc2ccc(C(=O)N[C@H](C(=O)NO)C(C)(C)N)cc2)c1 [Example 89-5] | 2 to 16 (≈ 5.27 to 42.2 µM) | 2 to 16 (≈ 5.27 to 42.2 µM) | < 2 | < 2 | < 2 | A (MIC's of 2.0 μg/mL or less = A) | 2 to 16 (≈ 5.27 to 42.2 µM) | 16 to 64 (≈ 42.2 to 169 µM) |  |
| CC(C)(N)[C@H](NC(=O)c1ccc(C#CC#Cc2cncnc2)cc1)C(=O)NO [Example 89-6] | 2 to 16 (≈ 5.3 to 42.4 µM) | 2 to 16 (≈ 5.3 to 42.4 µM) | < 2 | < 2 | < 2 | A (MIC's of 2.0 μg/mL or less = A) | 2 to 16 (≈ 5.3 to 42.4 µM) | 16 to 64 (≈ 42.4 to 170 µM) |  |
| CC(C)(O)[C@H](NC(=O)c1ccc(C#CC#Cc2cncnc2)cc1)C(=O)NO [Example 89-7] | 2 to 16 (≈ 5.29 to 42.3 µM) | 2 to 16 (≈ 5.29 to 42.3 µM) | < 2 | 2 to 16 (≈ 5.29 to 42.3 µM) | < 2 | A (MIC's of 2.0 μg/mL or less = A) | 16 to 64 (≈ 42.3 to 169 µM) | 16 to 64 (≈ 42.3 to 169 µM) |  |
| CCC#CC#Cc1ccc(C(=O)N[C@H](C(=O)NO)C(C)(C)N)cc1 [Example 91-1, N—((S)-2-Amino-1-hydroxycarbamoyl-2-methyl-propyl)-4-hexa-1,3-diynyl-benzamide] | < 2 | < 2 | < 2 | < 2 | < 2 | A (MIC's of 2.0 μg/mL or less = A) | < 2 | 2 to 16 (≈ 6.11 to 48.9 µM) | 7.2 |
| C[C@@H](O)[C@H](NC(=O)c1ccc(C#CC#CC2CC2)cc1)C(=O)NO [Example 91-5] | < 2 | < 2 | < 2 | < 2 | < 2 | A (MIC's of 2.0 μg/mL or less = A) | 2 to 16 (≈ 6.13 to 49 µM) | 16 to 64 (≈ 49 to 196 µM) |  |
| CC(C)(O)[C@H](NC(=O)c1ccc(C#CC#CC2CC2)cc1)C(=O)NO [Example 91-6] | < 2 | < 2 | < 2 | < 2 | < 2 | A (MIC's of 2.0 μg/mL or less = A) | < 2 | 16 to 64 (≈ 47 to 188 µM) |  |
| CCC#CC#Cc1ccc(C(=O)N[C@H](C(=O)NO)[C@@H](C)N)cc1 [Example 91-7] | < 2 | 2 to 16 (≈ 6.38 to 51.1 µM) | < 2 | < 2 | < 2 | A (MIC's of 2.0 μg/mL or less = A) | 2 to 16 (≈ 6.38 to 51.1 µM) | 2 to 16 (≈ 6.38 to 51.1 µM) |  |
| CCCC#CC#Cc1ccc(C(=O)N[C@H](C(=O)NO)[C@@H](C)N)cc1 [Example 91-8] | < 2 | 2 to 16 (≈ 6.11 to 48.9 µM) | < 2 | < 2 | < 2 | A (MIC's of 2.0 μg/mL or less = A) | 2 to 16 (≈ 6.11 to 48.9 µM) | 2 to 16 (≈ 6.11 to 48.9 µM) |  |
| CCCC#CC#Cc1ccc(C(=O)N[C@H](C(=O)NO)C(C)(C)N)cc1 [Example 91-9] | < 2 | < 2 | < 2 | < 2 | < 2 | A (MIC's of 2.0 μg/mL or less = A) | < 2 | 2 to 16 (≈ 5.86 to 46.9 µM) | 5.2 |
| CC(C)(N)C(NC(=O)c1ccc(C#CC#CC2CC2)cc1)C(=O)NO (centres unmarked) [Example 91-10] | < 2 | < 2 | < 2 | < 2 | < 2 | A (MIC's of 2.0 μg/mL or less = A) | < 2 | 16 to 64 (≈ 47.1 to 189 µM) |  |
| CC(C)(N)[C@@H](NC(=O)c1ccc(C#CC#CC2CC2)cc1)C(=O)NO [Example 91-11] | < 2 | 16 to 64 (≈ 47.1 to 189 µM) | < 2 | 2 to 16 (≈ 5.89 to 47.1 µM) | < 2 | A (MIC's of 2.0 μg/mL or less = A) | 16 to 64 (≈ 47.1 to 189 µM) | 16 to 64 (≈ 47.1 to 189 µM) |  |
| CC(C)C#CC#Cc1ccc(C(=O)NC(C(=O)NO)[C@@H](C)N)cc1 (some centres unmarked) [Example 91-13] | < 2 | 2 to 16 (≈ 6.11 to 48.9 µM) | < 2 | < 2 | < 2 | A (MIC's of 2.0 μg/mL or less = A) | 2 to 16 (≈ 6.11 to 48.9 µM) | 2 to 16 (≈ 6.11 to 48.9 µM) |  |
| CC(C)(N)[C@H](NC(=O)c1ccc(C#CC#CC2CCCC2)cc1)C(=O)NO [Example 91-14] | < 2 | 2 to 16 (≈ 5.44 to 43.5 µM) | < 2 | < 2 | < 2 | A (MIC's of 2.0 μg/mL or less = A) | < 2 | 2 to 16 (≈ 5.44 to 43.5 µM) | 3.3 |
| CC(C)C#CC#Cc1ccc(C(=O)N[C@H](C(=O)NO)C(C)(C)N)cc1 [Example 91-15] | < 2 | 2 to 16 (≈ 5.86 to 46.9 µM) | < 2 | < 2 | < 2 | A (MIC's of 2.0 μg/mL or less = A) | < 2 | 2 to 16 (≈ 5.86 to 46.9 µM) | 6.5 |
| CC(C)(N)[C@H](NC(=O)c1ccc(C#CC#CC2CCC2)cc1)C(=O)NO [Example 91-16] | < 2 | < 2 | < 2 | < 2 | < 2 | A (MIC's of 2.0 μg/mL or less = A) | < 2 | 2 to 16 (≈ 5.66 to 45.3 µM) | 2.6 |
| C[C@@H](N)[C@H](NC(=O)c1ccc(C#CC#CC2CCC2)cc1)C(=O)NO [Example 91-17] | < 2 | 2 to 16 (≈ 5.89 to 47.1 µM) | < 2 | < 2 | < 2 | A (MIC's of 2.0 μg/mL or less = A) | 2 to 16 (≈ 5.89 to 47.1 µM) | 16 to 64 (≈ 47.1 to 189 µM) |  |
| CC(C)CCC#CC#Cc1ccc(C(=O)N[C@H](C(=O)NO)C(C)(C)O)cc1 [Example 91-18] | < 2 | < 2 | < 2 | 2 to 16 (≈ 5.4 to 43.2 µM) | 2 to 16 (≈ 5.4 to 43.2 µM) | A (MIC's of 2.0 μg/mL or less = A) | 2 to 16 (≈ 5.4 to 43.2 µM) | 16 to 64 (≈ 43.2 to 173 µM) |  |
| CC(C)CC#CC#Cc1ccc(C(=O)N[C@H](C(=O)NO)C(C)(C)O)cc1 [Example 91-19] | < 2 | < 2 | < 2 | 2 to 16 (≈ 5.61 to 44.9 µM) | < 2 | A (MIC's of 2.0 μg/mL or less = A) | 2 to 16 (≈ 5.61 to 44.9 µM) | 16 to 64 (≈ 44.9 to 180 µM) |  |
